Measured values as given in PMC12973313 (Chemical Science, 2026).
Values joined by “and” are separate entries in the source; they are usually repeats but may differ in a detail not shown here. Equal values may be shown once.

Legend:
[1] = 1H NMR DOSY, DMSO-d6 0.5% H2O; format: physicochemical; settings: 298 K; for dH (nm), hydrodynamic diameter, anionic component: 1H NMR DOSY, DMSO-d6 0.5% H2O, 112 mM; for Hydrodynamic diameter (nm) Cationic component: DMSO-d6/0.5 % H2O
E. Faecalis NCTC 12201 = test: MIC assay; format: cell-based; settings: Enterococcus faecalis, NCTC12201; lowest concentration with no visible growth
Method: (§1) Section S3: Biological methods […]
(§2) Preparation of bacterial plates : Sterile TSB agar plates were streaked using the desired bacteria [Staphylococcus aureus (9144, 13616, USA 300 and 1199B ), Enterococcus faecalis (NCTC 775 and 12201 ) and Enterococcus faecium (NCTC 12204)] and incubated at 37 °C […]
(§3) Preparation of inoculum: An initial culture was made up by inoculating TSB (5 mL) with 3 single colonies of the desired bacteria under sterile conditions and incubated at 37 °C overnight. The optical density at 600 nm (OD 600) was adjusted using sterile distilled H 2O (dH2O) to equal ~1 x 10^6 bacteria/mL.
(§4) Preparation of 96 -well microplate : A solution of each compound in H2O/5 % EtOH was made […]
(§5) . The compound solution (200
(§6) […]. The bacterial suspension (100 µL) was dispensed into each well under sterile conditions. The plates were sealed using parafilm and incubated at 37 °C for 20 hours, after which the OD 600 was measured.

E. Faecium NCTC 12204 = test: MIC assay; format: cell-based; settings: Enterococcus faecium, NCTC12204; lowest concentration with no visible growth
Method: as §1, §2, §3, §4, §5, §6

[2] = Metabolic stability in liver microsomes; format: in vitro ADME, rat
Method: Following this, the metabolic stability of 9 was determined against mouse, rat, and human liver microsomes. […] Within this assay the stability of the intact parent compound is monitored with respect to time, during incubation at 37 °C in the presence and absence of the co-factor NADPH – required for cytochrome p450 activity.
Metabolic Stability in Rat, Mouse and Human Liver Microsomes:
The metabolic stability of compounds at a concentration of 1 µM, in rat, mouse and human liver microsomes (BD Gentest, Franklin Lakes NJ) was measured following incubation with […]
(NADPH) at 37 °C. Aliquots of each incubation were removed at 0.5, 5, 15, 30 and 60 minutes. The reaction was stopped by the addition of cold acetonitrile containing analytical […]
Samples were then centrifuged at 3,220 g for 40 minutes. The supernatant was aliquoted and added to ultra-pure H2O in a 1:1 ratio in preparation for LC-MS/MS analysis.
Incubations were conducted in duplicate; control incubations (substituting PBS for NADPH) were conducted simultaneously.
Samples were analysed using a Shimadzu Shimadzu Nexera LC Binary Gradient LC-30AD (Shimadzu Inc, Kyoto), coupled to a Sciex 5500 mass spectrometer (AB Inc., Illinois) for rat and mouse microsomes and a Sciex 6500+ for human microsomes. Separation achieved using an XSelect HSS T3 column (2.5µm, 50 x 2.1 mm) (Waters Ltd., Wilmslow) at a temperature of 40°C and a binary mobile phase gradient at a flow rate of 0.7 mL/min. Initial […]
(0.1% formic acid in acetonitrile).
0.5 minutes and then immediately returned to initial conditions. Sample analysis was by electrospray ionisation combined with multiple reaction monitoring in positive ion mode.
The ionspray voltage was 5500V.
Bi-directional Permeability in Caco-2 Cell Line: […]

[3] = system: Galleria mellonella larvae; test: G. mellonella toxicity assay; format: in vivo; settings: out of 10, 10 µL of 5 mM in H2O/EtOH 19:1, 37 °C
Method: Finally, we gauged the toxicity of SSAs 1, 3, 5, 7, and 9 as either homogenous solutions or heterogenous (1 : 1) enantiomeric mixtures towards multicellular organisms which have an intrinsic immune system.[66] Here, Galleria mellonella larvae were injected with 10 µL of SSA (5 mM) in a distilled H2O/EtOH 19 : 1 solution and then incubated at 37 °C for a maximum of five days and the number of surviving larvae recorded each day. […]. […]
G. mellonella treatment assay: G. mellonella larvae were purchased from Livefood UK Ltd.
(Rooks Bridge, UK) and maintained on wood chips in the dark at 15 °C until use. Galleria
larvae were injected with 10 µL of compound in H2O/5 % EtOH, incubated at 37 °C for 5 days
and the deaths counted. Groups of 10 Galleria were injected per compound. […]

Haemolysis assay = format: cell-based; settings: human, human red blood cells (erythrocytes), pH 7.4, 1.39 mM total molecular concentration, 37 °C
Method: Preparation of 96-well plate: Protocol modified from Travis et al.4 Heparinised human red blood cells collected from a volunteer and washed three times in PBS (pH 7.4). Compounds were serial diluted using PBS buffer across a 96-well V bottom Greiner plate. Negative control (100 µL PBS), and positive control (100 µL 0.1 % (v/v) Triton-X-100) were added to the plate.
100 µL of 10 % (v/v) of blood suspension added to all wells. Plates were incubated for 60 minutes at 37 °C. After incubation, plates were centrifuged for 15 minutes at 4680 rpm. The resultant supernatant was then transferred to a 96-well flat bottom plate and absorbance read at 540 nm (Fluostar Omega). Percent haemolysis was calculated using the formula as
Equation S2 - Percentage haemolysis calculation.
Haemolysis (%) = 𝐴𝑠𝑎𝑚𝑝𝑙𝑒 − 𝐴𝑛𝑒𝑔𝑎𝑡𝑖𝑣𝑒 𝑋 100

[4] = design: method as in PMID 29633393; settings: D2O 5% EtOH, 5.56 mM, 298 K; cited from earlier work

Compound | dH (nm), hydrodynamic diameter, anionic component [1] | Hydrodynamic diameter (nm) Cationic component [1] | MIC (E. Faecalis NCTC 12201) | MIC (E. Faecium NCTC 12204) | Galleria moth larvae survived Day 1 [3] | Galleria moth larvae survived Day 2 [3] | Galleria moth larvae survived Day 3 [3] | Galleria moth larvae survived Day 4 [3] | Galleria moth larvae survived Day 5 [3] | hemolysis at 60 min, 1.39 mM (Haemolysis assay) | other results
O=C(Nc1ccc(C(F)(F)F)cc1)N[C@H](Cc1ccccc1)C(=O)O [SSA 9] | 1.67 nm and 1.7 nm | 1.24 nm | > 2.78 mM | > 2.78 mM | 9 | 9 | 9 | 7 | 5 |  | microsomal CLint at 1 µM ([2]; liver microsomes, rat microsomes): < 7.5 µL/min/mg; Hepatic Extraction Ratio (ER) ([2]; rat): < 0.21; Predicted Hepatic CLH ([2]; rat): < 14.42 mL/min/kg; In vitro t1/2 ([2]; rat, 1 µM, 0.5 mg protein/mL): > 3.0797 h; Remaining percentage (%) 0.5 min ([2]; rat, +Cofactors): 100.00%; Remaining percentage (%) 5 min ([2]; rat, +Cofactors): 107.16%; Remaining percentage (%) 15 min ([2]; rat, +Cofactors): 104.62%; Remaining percentage (%) 30 min ([2]; rat, +Cofactors): 102.68%; Remaining percentage (%) 60 min ([2]; rat, +Cofactors): 102.41%; Remaining percentage (%) 0.5 min ([2]; rat, -Cofactors): 100.00%; Remaining percentage (%) 60 min ([2]; rat, -Cofactors): 107.67%; half-life at 1 µM ([2]; rat, liver microsomes, rat, 1 µM, 0.5 mg protein/mL, read-out: In vitro t1/2): > 3.08 h; CLint scaled at 1 µM ([2]; rat, liver microsomes, read-out: Scale-up CLint): < 18.3 mL/min/kg
O=C(O)CNC(=O)Nc1ccc(C(F)(F)F)cc1 [SSA 1] |  |  | > 2.78 mM | > 2.78 mM | 10 | 9 | 8 | 6 | 6 | 0.29% | Q NMR (%) SSA anion [4]: 68 (ref. [30]) %
CC(C)CC(NC(=O)Nc1ccc(C(F)(F)F)cc1)C(=O)O (stereo not drawn) [SSA 5] |  |  |  |  |  | 9 |  |  |  |  | dH (nm), hydrodynamic diameter, anionic component ([1]; listed as 5): 1.70 nm and 1.7 nm; Hydrodynamic diameter (nm) Cationic component ([1]; listed as 5): 1.28 nm; Galleria moth larvae survived Day 1 ([3]; listed as 5): 10; Galleria moth larvae survived Day 3 ([3]; listed as 5): 8; Galleria moth larvae survived Day 4 ([3]; listed as 5): 8; Galleria moth larvae survived Day 5 ([3]; listed as 5): 8
O=C(Nc1ccc(C(F)(F)F)cc1)N[C@@H](Cc1ccccc1)C(=O)O [SSA 7] | 1.70 nm and 1.7 nm | 1.27 nm | > 2.78 mM | > 2.78 mM | 10 | 4 | 4 | 4 | 4 | 0.47% | 
CC(C)CC(NC(=O)Nc1ccc(C(F)(F)F)cc1)C(=O)O (stereo not drawn) [SSA 3] |  |  | > 2.78 mM | > 2.78 mM |  | 9 |  |  |  |  | dH (nm), hydrodynamic diameter, anionic component ([1]; listed as 3): 1.66 nm and 1.7 nm; Hydrodynamic diameter (nm) Cationic component ([1]; listed as 3): 1.26 nm; Galleria moth larvae survived Day 1 ([3]; listed as 3): 9; Galleria moth larvae survived Day 3 ([3]; listed as 3): 9; Galleria moth larvae survived Day 4 ([3]; listed as 3): 6; Galleria moth larvae survived Day 5 ([3]; listed as 3): 5
